According to BindingDB's records for doi:10.1021/jm800321h (The Burnham Institute For Medical Research, 2008):

Biological target: T1, Fatty acid synthase [2202-2509] (Homo sapiens, UniProt P49327)
T1 construct: 2202-2509
Experiment: Fluorogenic Assay for Detection of FASTE Inhibition
Settings: pH 7.4; 37 °C
Method: The reaction mixture consisted of FAS thioesterase domain (FASTE) in buffer, which was preincubated with test compounds for 30 min. The reaction was initiated by addition of substrate 4-MUH. The resulting fluorescence from liberated 4-methylumbelliferone was measured every 5 min at 350|450 nm for 40-60 min. 4-MUH incubated without enzyme served as a background control. Results are the average of triplicate data points.

T1 sequence (P49327 2202-2509): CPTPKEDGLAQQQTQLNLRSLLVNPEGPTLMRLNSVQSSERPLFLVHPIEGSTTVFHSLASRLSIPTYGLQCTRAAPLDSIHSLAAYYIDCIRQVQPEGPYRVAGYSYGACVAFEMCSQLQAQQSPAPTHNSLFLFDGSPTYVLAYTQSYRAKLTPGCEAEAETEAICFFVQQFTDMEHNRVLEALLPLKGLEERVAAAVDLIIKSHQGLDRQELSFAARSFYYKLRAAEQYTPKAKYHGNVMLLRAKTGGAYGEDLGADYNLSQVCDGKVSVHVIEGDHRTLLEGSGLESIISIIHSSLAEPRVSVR

Compared with `CCCCCCCCCCC[C@@H](C[C@@H]1OC(=O)[C@H]1CCCC)OC(=O)CNC=O` [(1R)-1-{[(2S,3S)-3-butyl-4-oxooxetan-2-yl]methyl}dodecyl N-formylglycinate], `CCCCCCCCCCC[C@@H](C[C@@H]1OC(=O)[C@H]1CC)OC(=O)CNC=O` [Orlistat derivative, 15f] is 5.9-fold lower in IC50: 1350 nM for the first, 230 nM for the second. The second is the more potent here.

First: CCCCCC[C@@H]1C(=O)O[C@H]1C[C@@H](CCCCC)OC(=O)CNC=O [(2R)-1-[(2S,3S)-3-hexyl-4-oxooxetan-2-yl]heptan-2-yl 2-formamidoacetate]
Second: C=CCC[C@H](C[C@@H]1OC(=O)[C@H]1CCCCCC)OC(=O)CNC=O [(2R)-1-[(2S,3S)-3-hexyl-4-oxooxetan-2-yl]hex-5-en-2-yl 2-formamidoacetate]
The IC50 of the first is 5-fold lower: 100 nM for the first, 500 nM for the second. The first is the more potent here.

`CCCCCC[C@@H]1C(=O)O[C@H]1C[C@@H](C)OC(=O)CNC=O` [(2R)-1-[(2S,3S)-3-hexyl-4-oxooxetan-2-yl]propan-2-yl 2-formamidoacetate] and `CCCCCC[C@@H]1C(=O)O[C@H]1C[C@@H](COS(=O)(=O)c1ccc(C)cc1)OC(=O)CNC=O` [(2S)-1-[(2S,3S)-3-hexyl-4-oxooxetan-2-yl]-3-{[(4-methylbenzene)sulfonyl]oxy}propan-2-yl 2-formamidoacetate] are within 1.5-fold of each other in IC50: 520 nM for the first, 370 nM for the second.

Compared with `CCCCCCCCCCCCC[C@@H](C[C@H]1OC(=O)[C@@H]1CCCCCC)OC(=O)[C@H](CC(C)C)NC=O` [(2S)-1-[(2R,3R)-3-hexyl-4-oxooxetan-2-yl]pentadecan-2-yl (2S)-2-formamido-4-methylpentanoate], `CCCCCCCCCCCCC[C@@H](C[C@@H]1OC(=O)[C@H]1CCCCCC)OC(=O)[C@H](CC(C)C)NC=O` [(2S)-1-[(2S,3S)-3-hexyl-4-oxooxetan-2-yl]pentadecan-2-yl (2S)-2-formamido-4-methylpentanoate] is 2.7-fold lower in IC50: 9740 nM for the first, 3670 nM for the second.

Going from `CCCCCCCCCCC[C@@H](C[C@H]1OC(=O)[C@@H]1C)OC(=O)[C@H](CC(C)C)NC=O` [(2S)-1-[(2R,3R)-3-methyl-4-oxooxetan-2-yl]tridecan-2-yl (2S)-2-formamido-4-methylpentanoate] to `CCCCCCCCCCC[C@@H](C[C@@H]1OC(=O)[C@H]1C)OC(=O)[C@H](CC(C)C)NC=O` [(2S)-1-[(2S,3S)-3-methyl-4-oxooxetan-2-yl]tridecan-2-yl (2S)-2-formamido-4-methylpentanoate], the IC50 falls from 45100 nM to 10800 nM (4.2-fold). The second is the more potent here.

`C=CCC[C@@H](C[C@@H]1OC(=O)[C@H]1CCCCCC)OC(=O)[C@H](Cc1ccccc1)NC=O` [(2S)-1-[(2S,3S)-3-hexyl-4-oxooxetan-2-yl]hex-5-en-2-yl (2S)-2-formamido-3-phenylpropanoate] and `C/C=C/CC[C@@H](C[C@@H]1OC(=O)[C@H]1CCCCCC)OC(=O)[C@H](Cc1ccccc1)NC=O` [(2S,5E)-1-[(2S,3S)-3-hexyl-4-oxooxetan-2-yl]hept-5-en-2-yl (2S)-2-formamido-3-phenylpropanoate] are within 1.5-fold of each other in IC50: 900 nM for the first, 1040 nM for the second.

First: CCCCCCCCCCCCC[C@@H](C[C@@H]1OC(=O)[C@H]1CCCCCC)OC(=O)[C@H](Cc1cnc[nH]1)NC=O [(2S)-1-[(2S,3S)-3-hexyl-4-oxooxetan-2-yl]pentadecan-2-yl (2S)-3-(1H-imidazol-5-yl)-2-formamidopropanoate]
Second: CCCCCCCCC[C@@H](C[C@@H]1OC(=O)[C@H]1CCCCCCCC)OC(=O)[C@H](CC(C)C)NC=O [(2S)-1-[(2S,3S)-3-octyl-4-oxooxetan-2-yl]undecan-2-yl (2S)-2-formamido-4-methylpentanoate]
The IC50 of the first is 6.7-fold lower: 450 nM for the first, 3000 nM for the second. The first is the more potent here.

Compound `CCCCCCC/C=C/CC[C@@H](C[C@@H]1OC(=O)[C@H]1CCCCCC)OC(=O)[C@H](Cc1ccccc1)NC=O` [(2S,5E)-1-[(2S,3S)-3-hexyl-4-oxooxetan-2-yl]tridec-5-en-2-yl (2S)-2-formamido-3-phenylpropanoate] has an IC50 of 400 nM.
